Patent US6214839A, “Substituted 6-alkylphenanthridines” (Byk Gulden Lomberg Chemische Fabrik GmbH, priority 1997, dated 2001)

Tested on: PDE 4
Assay: Inhibition of PDE 4 activity
Type: biochemical
Conditions: inhibitory concentration as -log IC50 (mol/l), method of Bauer and Schwabe adapted to microtiter plates

CCOc1cc2c(cc1OC)C([C@H]1CC[C@H](C(=O)OC)CC1)=N[C@H]1CCCC[C@@H]21 (relative stereo) [Compound 1]
-log IC50: 7.47
